Test results taken from ChEMBL document CHEMBL4725485, “Bivalent Ligand Aiming Putative Mu Opioid Receptor and Chemokine Receptor CXCR4 Dimers in Opioid Enhanced HIV-1 Entry” (ACS Med Chem Lett, 2020).
Calls of active or inactive are those of the source. The calls are words filed in the database; no cut-off is given here.

Legend:
[1] = tested on: Human immunodeficiency virus 1; assay: Antiviral activity against HIV1 3B infected in human TZM-bl cells assessed as reduction in viral entry by measuring Tat protein level at 1500 nM measured after 3 days in presence of IT1T and morphine by luciferase-based assay; type: functional, organism-based; conditions: time 3.0 day
[2] = molecular target: Mu-type opioid receptor (Mus musculus, UniProt P42866); assay: Displacement of [3H]-NLX from mouse mu opioid receptor expressed in CHO cells measured after 1.5 hrs by competitive-binding assay; type: cell-based
[3] = molecular target: T1, C-X-C chemokine receptor type 4 (Homo sapiens, UniProt P61073); assay: Displacement of [125I]SDF-1alpha from CXCR4 in human Chem-1 cells measured after 90 mins; type: cell-based
[4] = tested on: Human immunodeficiency virus 1; assay: Antiviral activity against HIV1 3B infected in human TZM-bl cells assessed as reduction in viral entry by measuring Tat protein level at 60 nM measured after 3 days by luciferase-based assay; type: functional, organism-based; conditions: time 3.0 day
[5] = Cytotoxicity against human GHOST CXCR4 cells assessed as reduction in cell viability incubated for 4 hrs by XTT assay; type: cell-based; conditions: read-out: TC50
[6] = Inhibition of HIV1 3B Tat infected in human TZM-bl cells assessed as reduction in viral entry in cells when pretreated for 1 hr followed by HIV1 3B infection and further incubated for 2 days followed by luciferase substrate addition by luminescence assay; type: cell-based; conditions: Human immunodeficiency virus 1, 3B
[7] = tested on: Human immunodeficiency virus 1; assay: Antiviral activity against HIV1 3B infected in human TZM-bl cells assessed as reduction in viral entry by measuring Tat protein level at 60 nM measured after 3 days in presence of naltrexone and morphine by luciferase-based assay; type: functional, organism-based; conditions: time 3.0 day
[8] = tested on: Human immunodeficiency virus 1; assay: Antiviral activity against HIV1 3B infected in human TZM-bl cells assessed as reduction in viral entry by measuring Tat protein level at 60 nM measured after 3 days in presence of morphine by luciferase-based assay; type: functional, organism-based; conditions: time 3.0 day
[9] = Therapeutic index, ratio of TC50 for human GHOST CXCR4 cells assessed as reduction in cell viability incubated for 4 hrs by XTT assay to EC50 for HIV1 3B reverse transcriptase infected in human GHOST CXCR4 cells assessed as reduction in viral replication incubated for 60 to 90 mins in presence of DTT and TTP by liquid scintillation counter; type: toxicity, cell-based; conditions: read-out: TI
[10] = molecular target: T1, C-X-C chemokine receptor type 4; assay: Antagonist activity at CXCR4 (unknown origin) expressed in CHO cells assessed as reduction in SDF1-induced intracellular calcium mobilization incubated for 15 mins followed by SDF1 addition by Fluo-AM dye based fluorescence assay; type: functional, cell-based
[11] = molecular target: T2, Mu-type opioid receptor (Homo sapiens, UniProt P35372); assay: Agonist activity at mu opioid receptor (unknown origin) by [35S]-GTPgammaS binding assay; type: functional
[12] = molecular target: T2, Mu-type opioid receptor; assay: Antagonist activity at human mu opioid receptor expressed in CHO cells co- expressing Gqi5 assessed as decrease in DAMGO-induced intracellular calcium mobilization incubated for 15 mins followed by DAMGO addition by Fluo-AM dye based fluorescence assay; type: functional, cell-based
[13] = molecular target: T2, Mu-type opioid receptor; assay: Agonist activity at mu opioid receptor (unknown origin) assessed as maximum efficacy by [35S]-GTPgammaS binding assay relative to DAMGO; type: functional; conditions: filed as agonist
[14] = tested on: TZM-bl; assay: Inhibition of HIV1 3B Tat infected in human TZM-bl cells assessed as reduction in viral entry in cells at 30 uM when pretreated for 1 hr followed by HIV1 3B infection and further incubated for 2 days followed by luciferase substrate addition by luminescence assay relative to control; type: cell-based; conditions: Human immunodeficiency virus 1, time 2.0 day
[15] = tested on: Human immunodeficiency virus 1; assay: Antiviral activity against HIV1 3B infected in human TZM-bl cells assessed as reduction in viral entry by measuring Tat protein level at 1000 nM measured after 3 days by luciferase-based assay; type: functional, organism-based; conditions: time 3.0 day
[16] = tested on: Human immunodeficiency virus 1; assay: Antiviral activity against HIV1 3B infected in human TZM-bl cells assessed as reduction in viral entry by measuring Tat protein level at 1000 nM measured after 3 days in presence of morphine by luciferase-based assay; type: functional, organism-based; conditions: time 3.0 day

Sequence of Mu-type opioid receptor (Mus musculus, UniProt P42866) (P42866 whole entry): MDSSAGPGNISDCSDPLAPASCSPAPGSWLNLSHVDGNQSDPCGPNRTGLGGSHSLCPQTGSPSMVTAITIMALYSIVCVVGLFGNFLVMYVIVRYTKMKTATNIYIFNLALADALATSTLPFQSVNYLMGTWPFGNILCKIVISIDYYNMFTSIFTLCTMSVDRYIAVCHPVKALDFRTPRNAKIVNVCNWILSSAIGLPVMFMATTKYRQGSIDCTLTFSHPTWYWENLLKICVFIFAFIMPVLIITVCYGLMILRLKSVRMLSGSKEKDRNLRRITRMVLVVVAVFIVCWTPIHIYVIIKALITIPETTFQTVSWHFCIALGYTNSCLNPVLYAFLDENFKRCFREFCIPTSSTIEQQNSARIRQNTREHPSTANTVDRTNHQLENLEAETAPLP
T1 sequence (P61073 whole entry): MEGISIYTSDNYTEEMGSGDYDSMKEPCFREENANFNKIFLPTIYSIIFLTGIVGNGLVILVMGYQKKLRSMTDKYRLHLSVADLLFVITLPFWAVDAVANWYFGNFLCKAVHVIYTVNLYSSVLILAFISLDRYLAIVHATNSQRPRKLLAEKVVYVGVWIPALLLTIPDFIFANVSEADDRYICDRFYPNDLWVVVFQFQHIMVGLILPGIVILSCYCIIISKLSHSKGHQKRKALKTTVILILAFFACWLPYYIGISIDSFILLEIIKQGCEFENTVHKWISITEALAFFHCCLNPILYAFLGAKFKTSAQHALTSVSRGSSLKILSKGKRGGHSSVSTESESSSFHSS
T2 sequence (P35372 whole entry): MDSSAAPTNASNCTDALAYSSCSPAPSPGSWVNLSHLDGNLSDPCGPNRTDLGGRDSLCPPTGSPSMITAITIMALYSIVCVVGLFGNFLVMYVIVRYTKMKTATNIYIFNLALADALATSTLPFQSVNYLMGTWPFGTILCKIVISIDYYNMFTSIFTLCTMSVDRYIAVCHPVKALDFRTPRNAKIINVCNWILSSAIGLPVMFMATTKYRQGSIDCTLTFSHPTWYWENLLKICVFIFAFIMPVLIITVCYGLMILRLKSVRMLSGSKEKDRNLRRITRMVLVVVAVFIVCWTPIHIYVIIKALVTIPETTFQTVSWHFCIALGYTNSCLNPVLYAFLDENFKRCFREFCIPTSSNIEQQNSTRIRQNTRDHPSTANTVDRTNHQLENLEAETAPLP

## O=C1CC[C@@]2(O)[C@H]3Cc4ccc(O)c5c4[C@@]2(CCN3CC2CC2)[C@H]1O5
[1]
  Activity: Active

## CC1(C)CN2C(CS/C(=N\[C@H]3CC[C@H](CNC(=O)COCC(=O)NCCCCCCCCNC(=O)COCC(=O)N[C@@H]4CC[C@@]5(O)[C@H]6Cc7ccc(O)c8c7[C@@]5(CCN6CC5CC5)[C@H]4O8)CC3)NC3CCCCC3)=CSC2=N1
[2]
  Ki: 0.00292 µM

## CC1(C)CN2C(CS/C(=N\[C@H]3CC[C@H](CNC(=O)COCC(=O)NCCCCCCNC(=O)COCC(=O)N[C@@H]4CC[C@@]5(O)[C@H]6Cc7ccc(O)c8c7[C@@]5(CCN6CC5CC5)[C@H]4O8)CC3)NC3CCCCC3)=CSC2=N1
[3]
  IC50: 0.0172 µM

## CC1(C)CN2C(CS/C(=N\C3CCCCC3)NC3CCCCC3)=CSC2=N1
[4]
  Activity: Active
[5]
  CC50 at 4 h: > 1 µM
[6]
  IC50: 0.164 µM
[7]
  Activity: Active
[8]
  Activity: Active

## CNC(=O)COCC(=O)NCCCCNC(=O)COCC(=O)NC[C@H]1CC[C@H](/N=C(\NC2CCCCC2)SCC2=CSC3=NC(C)(C)CN23)CC1
[9]
  selectivity ratio at 4 h: 3.8
[3]
  IC50: 69 µM
[10]
  IC50: 53 µM

## CNC(=O)COCC(=O)NCCCCNC(=O)COCC(=O)N[C@@H]1CC[C@@]2(O)[C@H]3Cc4ccc(O)c5c4[C@@]2(CCN3CC2CC2)[C@H]1O5
[11]
  EC50: 0.0081 µM
[2]
  Ki: 0.0031 µM
[12]
  IC50: 0.254 µM
[13]
  Emax: 12.3%

## CC1(C)CN2C(CS/C(N)=N\[C@H]3CC[C@H](CNC(=O)COCC(=O)NCCCCNC(=O)COCC(=O)N[C@@H]4CC[C@@]5(O)[C@H]6Cc7ccc(O)c8c7[C@@]5(CCN6CC5CC5)[C@H]4O8)CC3)=CSC2=N1
[11]
  EC50: 0.05 µM
[2]
  Ki: 0.0038 µM
[14]
  inhibition: 100%
[5]
  CC50 at 4 h: 153 µM
[6]
  IC50: 0.3 µM
[9]
  selectivity ratio at 4 h: 160
[12]
  IC50: 0.0305 µM
[3]
  IC50: 3.6 µM
[13]
  Emax: 9.5%
[15]
  Activity: Active
[16]
  Activity: Active
[10]
  IC50: 8.3 µM
